PubChem BioAssay AID2060908 (Molecular Pharmacology Branch, DTP, NCI, 2025)

Tested on: 186277-243-T-J2-PDC complex spheroids, viability
Assay: Anticancer human tumor 186277-243-T-J2-PDC patient-derived colon adenocarcinoma cell line growth inhibition [RAS]
Settings: for viability, T/C: stronger effect = lower value
Outline: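 Agents were tested in combination matrices in half-log decrements from a top concentration at or near clinical Cmax (10 microM if undetermined). Targets were multi-cell spheroids of tumour lines plus HUVEC and MSC stromal cells.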

[1] = curve of first compound, second compound 0.000949 µM
[2] = curve of first compound, second compound 0.003 µM
[3] = curve of first compound, second compound 0.00949 µM
[4] = curve of first compound, second compound 0.03 µM
[5] = curve of first compound, second compound 0.0949 µM
[6] = curve of first compound, second compound 0.3 µM
[7] = second compound 0.000949 µM, first compound 0.0316 µM
[8] = second compound 0.000949 µM, first compound 0.1 µM
[9] = second compound 0.000949 µM, first compound 0.316 µM
[10] = second compound 0.000949 µM, first compound 1 µM
[11] = second compound 0.003 µM, first compound 0.0316 µM
[12] = second compound 0.003 µM, first compound 0.1 µM
[13] = second compound 0.003 µM, first compound 0.316 µM
[14] = second compound 0.003 µM, first compound 1 µM
[15] = second compound 0.00949 µM, first compound 0.0316 µM
[16] = second compound 0.00949 µM, first compound 0.1 µM
[17] = second compound 0.00949 µM, first compound 0.316 µM
[18] = second compound 0.00949 µM, first compound 1 µM
[19] = second compound 0.03 µM, first compound 0.0316 µM
[20] = second compound 0.03 µM, first compound 0.1 µM
[21] = second compound 0.03 µM, first compound 0.316 µM
[22] = second compound 0.03 µM, first compound 1 µM
[23] = second compound 0.0949 µM, first compound 0.0316 µM
[24] = second compound 0.0949 µM, first compound 0.1 µM
[25] = second compound 0.0949 µM, first compound 0.316 µM
[26] = second compound 0.0949 µM, first compound 1 µM
[27] = second compound 0.3 µM, first compound 0.0316 µM
[28] = second compound 0.3 µM, first compound 0.1 µM
[29] = second compound 0.3 µM, first compound 0.316 µM
[30] = second compound 0.3 µM, first compound 1 µM
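Also: spheroids exposed to compounds for 7 days before viability read.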

CC(C)NCC(C(=O)N1CCN(c2ncnc3c2C(C)CC3O)CC1)c1ccc(Cl)cc1 (stereo not drawn) + CCn1c(-c2cc(N3CCN(C)CC3)cnc2C(C)OC)c2c3cc(ccc31)-c1csc(n1)CC(NC(=O)C1CC1C)C(=O)N1CCCC(N1)C(=O)OCC(C)(C)C2
IC50 [1]: 0.841 µM | IC50 [2]: 0.467 µM | IC50 [3]: 0.0692 µM | IC50 [4]: < 0.0316 µM | IC50 [5]: < 0.0316 µM | IC50 [6]: < 0.0316 µM | viability, T/C [7]: 111% | viability, T/C [8]: 101% | viability, T/C [9]: 74.8% | viability, T/C [10]: 42.8% | viability, T/C (second compound 0.000949 µM, first compound 3.16 µM): 34.8% | viability, T/C (second compound 0.000949 µM, first compound 10 µM): 20.4% | viability, T/C [11]: 98.6% | viability, T/C [12]: 81.6% | viability, T/C [13]: 58.8% | viability, T/C [14]: 33.8% | viability, T/C (second compound 0.003 µM, first compound 3.16 µM): 16.1% | viability, T/C (second compound 0.003 µM, first compound 10 µM): 7.85% | viability, T/C [15]: 51.6% | viability, T/C [16]: 51% | viability, T/C [17]: 28% | viability, T/C [18]: 11.4% | viability, T/C (second compound 0.00949 µM, first compound 3.16 µM): 4.9% | viability, T/C (second compound 0.00949 µM, first compound 10 µM): 1.96% | viability, T/C [19]: 13.1% | viability, T/C [20]: 15.3% | viability, T/C [21]: 7.36% | viability, T/C [22]: 3.74% | viability, T/C (second compound 0.03 µM, first compound 3.16 µM): 1.65% | viability, T/C (second compound 0.03 µM, first compound 10 µM): 0.66% | viability, T/C [23]: 6.83% | viability, T/C [24]: 6.82% | viability, T/C [25]: 4.35% | viability, T/C [26]: 2.2% | viability, T/C (second compound 0.0949 µM, first compound 3.16 µM): 1.09% | viability, T/C (second compound 0.0949 µM, first compound 10 µM): 0.38% | viability, T/C [27]: 6.18% | viability, T/C [28]: 5.27% | viability, T/C [29]: 3.57% | viability, T/C [30]: 1.82% | viability, T/C (second compound 0.3 µM, first compound 3.16 µM): 0.88% | viability, T/C (second compound 0.3 µM, first compound 10 µM): 0.37%

CC(C)NCC(C(=O)N1CCN(c2ncnc3c2C(C)CC3O)CC1)c1ccc(Cl)cc1 (stereo not drawn) + C#Cc1c(F)ccc2cc(O)cc(-c3ncc4c(N5CC6CCC(C5)N6)nc(OCC56CCCN5CC(F)C6)nc4c3F)c12
IC50 (curve of first compound, second compound 0.0316 µM): 0.244 µM | IC50 (curve of first compound, second compound 0.1 µM): 0.117 µM | IC50 (curve of first compound, second compound 0.316 µM): < 0.0316 µM | IC50 (curve of first compound, second compound 1 µM): < 0.0316 µM | IC50 (curve of first compound, second compound 3.16 µM): < 0.0316 µM | IC50 (curve of first compound, second compound 10 µM): < 0.0316 µM | viability, T/C (second compound 0.0316 µM, first compound 0.0316 µM): 74.3% | viability, T/C (second compound 0.0316 µM, first compound 0.1 µM): 76.1% | viability, T/C (second compound 0.0316 µM, first compound 0.316 µM): 40.8% | viability, T/C (second compound 0.0316 µM, first compound 1 µM): 20.5% | viability, T/C (second compound 0.0316 µM, first compound 3.16 µM): 10.6% | viability, T/C (second compound 0.0316 µM, first compound 10 µM): 7.17% | viability, T/C (second compound 0.1 µM, first compound 0.0316 µM): 55.4% | viability, T/C (second compound 0.1 µM, first compound 0.1 µM): 55.4% | viability, T/C (second compound 0.1 µM, first compound 0.316 µM): 29.3% | viability, T/C (second compound 0.1 µM, first compound 1 µM): 12% | viability, T/C (second compound 0.1 µM, first compound 3.16 µM): 6.43% | viability, T/C (second compound 0.1 µM, first compound 10 µM): 4.17% | viability, T/C (second compound 0.316 µM, first compound 0.0316 µM): 28.8% | viability, T/C (second compound 0.316 µM, first compound 0.1 µM): 26.3% | viability, T/C (second compound 0.316 µM, first compound 0.316 µM): 13.1% | viability, T/C (second compound 0.316 µM, first compound 1 µM): 5.77% | viability, T/C (second compound 0.316 µM, first compound 3.16 µM): 3.93% | viability, T/C (second compound 0.316 µM, first compound 10 µM): 2.95% | viability, T/C (second compound 1 µM, first compound 0.0316 µM): 17.7% | viability, T/C (second compound 1 µM, first compound 0.1 µM): 14.4% | viability, T/C (second compound 1 µM, first compound 0.316 µM): 10.1% | viability, T/C (second compound 1 µM, first compound 1 µM): 5.25% | viability, T/C (second compound 1 µM, first compound 3.16 µM): 4.08% | viability, T/C (second compound 1 µM, first compound 10 µM): 2.03% | viability, T/C (second compound 3.16 µM, first compound 0.0316 µM): 12.4% | viability, T/C (second compound 3.16 µM, first compound 0.1 µM): 11.2% | viability, T/C (second compound 3.16 µM, first compound 0.316 µM): 9.1% | viability, T/C (second compound 3.16 µM, first compound 1 µM): 3.67% | viability, T/C (second compound 3.16 µM, first compound 3.16 µM): 2.83% | viability, T/C (second compound 3.16 µM, first compound 10 µM): 2.07% | viability, T/C (second compound 10 µM, first compound 0.0316 µM): 8.59% | viability, T/C (second compound 10 µM, first compound 0.1 µM): 9.81% | viability, T/C (second compound 10 µM, first compound 0.316 µM): 5.65% | viability, T/C (second compound 10 µM, first compound 1 µM): 3.64% | viability, T/C (second compound 10 µM, first compound 3.16 µM): 2.9% | viability, T/C (second compound 10 µM, first compound 10 µM): 0.94%

CCN1CCN(Cc2ccc(Nc3ncc(F)c(-c4cc(F)c5nc(C)n(C(C)C)c5c4)n3)nc2)CC1 + CCn1c(-c2cccnc2C(C)OC)c2c3cc(ccc31)N1CCOC(CC(NC(=O)C(C(C)C)N(C)C(=O)C3(F)CCN(C(=O)C#CC(C)(C)N(C)C)CC3)C(=O)N3CCCC(N3)C(=O)OCC(C)(C)C2)C1
IC50 [1]: > 1 µM | IC50 [2]: > 1 µM | IC50 [3]: > 1 µM | IC50 [4]: > 1 µM | IC50 [5]: > 1 µM | IC50 [6]: > 1 µM | viability, T/C (second compound 0.000949 µM, first compound 0.00316 µM): 123% | viability, T/C (second compound 0.000949 µM, first compound 0.01 µM): 105% | viability, T/C [7]: 135% | viability, T/C [8]: 140% | viability, T/C [9]: 184% | viability, T/C [10]: 126% | viability, T/C (second compound 0.003 µM, first compound 0.00316 µM): 109% | viability, T/C (second compound 0.003 µM, first compound 0.01 µM): 95.8% | viability, T/C [11]: 135% | viability, T/C [12]: 160% | viability, T/C [13]: 168% | viability, T/C [14]: 128% | viability, T/C (second compound 0.00949 µM, first compound 0.00316 µM): 85.8% | viability, T/C (second compound 0.00949 µM, first compound 0.01 µM): 116% | viability, T/C [15]: 97.7% | viability, T/C [16]: 162% | viability, T/C [17]: 180% | viability, T/C [18]: 132% | viability, T/C (second compound 0.03 µM, first compound 0.00316 µM): 102% | viability, T/C (second compound 0.03 µM, first compound 0.01 µM): 136% | viability, T/C [19]: 135% | viability, T/C [20]: 155% | viability, T/C [21]: 171% | viability, T/C [22]: 110% | viability, T/C (second compound 0.0949 µM, first compound 0.00316 µM): 118% | viability, T/C (second compound 0.0949 µM, first compound 0.01 µM): 134% | viability, T/C [23]: 122% | viability, T/C [24]: 142% | viability, T/C [25]: 142% | viability, T/C [26]: 90.7% | viability, T/C (second compound 0.3 µM, first compound 0.00316 µM): 134% | viability, T/C (second compound 0.3 µM, first compound 0.01 µM): 113% | viability, T/C [27]: 123% | viability, T/C [28]: 116% | viability, T/C [29]: 104% | viability, T/C [30]: 58.6%

C=CC(=O)Nc1cc(Nc2nccc(-c3cn(C)c4ccccc34)n2)c(OC)cc1N(C)CCN(C)C
viability, T/C (compound 0.00316 µM): 91.2% [middle of 4 runs] | viability, T/C (compound 0.0316 µM): 93.3% [middle of 4 runs] | viability, T/C (compound 0.1 µM): 99.4% [middle of 4 runs] | viability, T/C (compound 0.316 µM): 94.8% [middle of 4 runs] | IC50 (curve of compound): > 1 µM

C[C@@H](NC(=O)c1ncnc(N)c1Cl)c1ncc(C(=O)Nc2cc(C(F)(F)F)c(Cl)cn2)s1
viability, T/C (compound 0.0316 µM): 99.8% [middle of 4 runs] | viability, T/C (compound 0.1 µM): 93.7% [middle of 4 runs] | viability, T/C (compound 0.316 µM): 102% [middle of 4 runs] | viability, T/C (compound 1 µM): 91.9% [middle of 4 runs] | viability, T/C (compound 3.16 µM): 104% [middle of 4 runs] | viability, T/C (compound 10 µM): 79.8% [middle of 4 runs] | IC50 (curve of compound): > 10 µM
